Results on 22 compounds are retold here after patent publication US20260008775A1, “AZOLE MODULATORS OF CHOLESTEROL BIOSYNTHESIS AND THEIR USE FOR PROMOTING REMYELINATION” (GENENTECH, INC., priority 2022, published 2026).

SMILES strings stand for the structures. A value given as a limit tells only on which side of the number the result lay.

Experiment [1] deals with zymostenol accumulation (EBP) in EpiSC-derived OPCs. The experiment in a line: GC/MS-based sterol profiling, zymostenol accumulation in EpiSC-derived OPCs. Format: cell-based, mouse. The conditions noted are these: Mus musculus, 24 h, EpiSC-derived OPCs, 24 hr, 8 doses from 0.15 nM to 333 nM; read-out: Mouse Zymostenol GCMS EC50. As for the experimental part:
To assess effects of treatments on OPCs, all treatments were assayed in two or more independent platings of epiblast stem cell-derived OPCs (EpiSC). EpiSC-derived OPCs were obtained using in vitro differentiation protocols and culture conditions described previously (Najm et al, 2011, Nature Methods). OPCs were expanded and frozen down in aliquots. OPCs were thawed into growth conditions for at least one passage before use in further assays.
Sterols were monitored using a modified Folch wash protocol (Hubler et al, 2018, Nature). EpiSC-derived OPCs were plated at 100,000 cells per well in PO- and laminin-coated 96-well plates in N2B27 media without growth factors. After 24 hours, cells were rinsed with saline and plates were frozen. Cholesterol-d7 standard was then added to each well before drying under nitrogen stream and derivatization with 55 μl of bis(trimethylsilyl) trifluoroacetamide. After derivatization, 2 μl were analyzed by gas chromatography/mass spectrometry using an Agilent 5973 Network Mass Selective Detector equipped with a 6890 gas chromatograph system and a HP-5MS capillary column (30 m×0.25 mm×[…]). Samples were analyzed in full scan mode using electron impact ionization; ion fragment peaks were integrated to calculate sterol abundance, and quantitation was relative to cholesterol-d7. The following ion fragments were used to quantitate each metabolite: cholesterol-d7 (465), FF-Mas (482), cholesterol (368), zymostenol (458), zymosterol (456), Desmosterol (456, 343), 7-dehydrocholesterol (456, 325), lanosterol (393), lathosterol (458), 14-dehydrozymostenol (456, 351). […] All standards were obtained from Avanti Polar Lipids unless otherwise indicated. Calibration curves were generated by injecting varying concentrations of sterol standards and maintaining a fixed amount of cholesterol-D7. For normalized zymostenol accumulation results, the total amount of zymostenol measured after drug treatment was divided by the total amount of zymostenol accumulated after 24 hr treatment with 100 nM positive control reference.

Experiment [2] has as its target human emopamil binding protein and human 7-dehydrocholesterol reductase (hEBP-DHCR7) (Homo sapiens (Human), UniProt Q15125). The experiment in a line: hEBP-DHCR7 radioligand binding assay (filter binding, membranes of co-expressing HEK293 cells). The conditions noted are these: competition with [3H] radioligand, 8 doses 0.06 to 5000 nM, Ki calculated from IC50. The method, then: Membrane Preparation: human emopamil binding protein and human 7-dehydrocholesterol reductase co-expressing cells were generated by transient transfecting host human embryonic kidney (HEK) 293 cells with 2 DNA constructs containing each protein's coding sequence. Cells were suspension cultured at 37° C. with 5% CO2 in […] 293 Expression Medium (Thermofisher). Whole cell membrane was prepared by harvesting the cell pellet, adding cold membrane buffer (50 mM Tris, pH7.5, 1× Roche COMPLETE EDTA-free protease inhibitor cocktail) 10 times volume of the cell pellets weight, lysing cell pellet on ice by using Dounce homogenizer, spinning at 200 g 4° C. for 15 min, collecting supernatant and spinning again at 25000 g 4° C. for 50 min, transferring pellet to Dounce homogenizer, re-suspending pellet by homogenizing in membrane buffer on ice to reach ˜25 mg/mL, then keeping whole cell membrane aliquots at −80° C.
Compounds were prepared in a 96-well U bottom plate (Corning Cat #7007) using an Echo550 machine and 10 mM compound DMSO stock solution, followed by an 8-dose 5-fold serial dilutions protocol with final testing compound concentration ranging from 0.06 to 5000 nM, with DMSO back fill to 100 nL/well and n=2. […] The UniFilter-96 GF/B plates (PerkinElmer Cat #6005177) were pre-treated by adding 50 μl/well of 0.3% (v/v) Polyethylenimine (PEI) (branched, Sigma Cat #408727) to UniFilter-96 GF/B plates. The plates were sealed and incubated at 4° C. for 3 hrs. Then, the plates were washed with ice-cold assay buffer 3 times. The radioligand binding assay was prepared by adding assay buffer diluted hEBP-DHCR7 membrane at 66.7 µg/ml×150 μl/well into the 96-well compound plate to reach 10 μg membrane per well. Then, the assay buffer diluted [3H]—(S)-6-(2-Methyl-3-(6-(trifluoromethyl)pyridin-3-yl)propyl)-2-thia-6-azaspiro[3.4]octane 2,2-dioxide (Moravek, Cat #MT-1003106) was added at 25 nM×50 μl/well. Following this, the plate was centrifuged at 1000 rpm for 30 secs. The plate was then sealed and agitated at 600 rpm at 22° C. for 5 min, and then incubated at 22° C. for 3 hrs. The incubation was stopped by transferring the binding solution to the pre-treated UniFilter-96 GF/B plate, vacuum filtrated, and then washed four times with ice-cold assay buffer. Following this, the plates were dried at 37° C. for 45 min. The plates were then sealed at the bottom. 40 µl/well of scintillation cocktail was added to the plates. A MicroBeta2 microplate counter was then used to read the plate and analyze the data. For reference and test compounds, the results are expressed as % Inhibition, using the normalization equation: N=100−100×(U−C2)/(C1−C2), where U is the unknown value, C1 is the average of high controls, and C2 is the average value of low controls.

Sequence of human emopamil binding protein and human 7-dehydrocholesterol reductase (hEBP-DHCR7) (Q15125 whole entry): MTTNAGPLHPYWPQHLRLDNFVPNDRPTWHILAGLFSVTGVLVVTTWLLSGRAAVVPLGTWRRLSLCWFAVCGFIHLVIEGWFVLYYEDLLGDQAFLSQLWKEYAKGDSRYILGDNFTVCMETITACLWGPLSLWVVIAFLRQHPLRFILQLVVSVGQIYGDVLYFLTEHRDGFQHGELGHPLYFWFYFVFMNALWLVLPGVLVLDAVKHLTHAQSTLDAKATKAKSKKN

Usually EC50 stands for the concentration needed to bring the measured effect to its halfway point. As for `CC(C)n1nc(-c2cc(C(F)(F)F)ccn2)nc1[C@@H]1CC[C@@H](N2CCOCC2)C1` (single isomer, unassigned) [27*], the EC50 in experiment [1] is 141 nM. Broadly, the Ki is the equilibrium dissociation constant of an inhibitor or competing ligand from its target. With `CC(C)n1nc(-c2cnc(C(F)(F)F)nc2)nc1[C@H]1CC[C@H](N2CCOCC2)C1` [Compound 94, 4-((1S,3S)-3-(1-Isopropyl-3-(2-(trifluoromethyl)pyrimidin-5-yl)-1H-1,2,4-triazol-5-yl)cyclopentyl)morpholine], the Ki in experiment [2] was 243 nM. Besides, the EC50 in experiment [1] stood at 187 nM. Turning to `CC[C@@H]1CN([C@@H]2CC[C@@H](c3nc(-c4cnc(C(F)(F)F)nc4)nn3C(C)C)C2)CCO1` [Compound 153, (R)-2-Ethyl-4-((1R,3R)-3-(1-isopropyl-3-(2-(trifluoromethyl)pyrimidin-5-yl)-1H-1,2,4-triazol-5-yl)cyclopentyl) morpholine], in experiment [2], the Ki was 58.2 nM. The half-maximal effective concentration (EC50) in experiment [1] worked out at 13.4 nM. In the same order, the values of `CC(C)n1nc(-c2cncc(Cl)c2)nc1[C@H]1CC[C@H](N2CCOC[C@@H]2C)C1` [Compound 125, (S)-4-((1S,3S)-3-(3-(5-Chloropyridin-3-yl)-1-isopropyl-1H-1,2,4-triazol-5-yl)cyclopentyl)-3-methylmorpholine] are 245 nM and 716 nM.

Turning to `CC(C)n1nc(-c2cncc(C(F)(F)F)c2)nc1[C@H]1[C@@H]2C[C@@H](N3CCOC[C@H]3C)C[C@@H]21` [Compound 119, (R)-4-((1R,3s,5S,6R)-6-(1-Isopropyl-3-(5-(trifluoromethyl)pyridin-3-yl)-1H-1,2,4-triazol-5-yl)bicyclo[3.1.0]hexan-3-yl)-3-methylmorpholine], the inhibitory constant (Ki) in experiment [2] is 584 nM. The EC50 in experiment [1] came out at 213 nM.

With `CC(C)n1nc(-c2ccc(C(F)(F)F)nc2)nc1[C@H]1CC[C@H](N2CCO[C@H](CF)C2)C1` (single isomer, unassigned) [Compound 168], the Ki in experiment [2] is 388 nM. In experiment [1], the EC50 was 229 nM. As for `CC(C)n1nc(-c2ccc(C(F)(F)F)nc2)cc1[C@H]1CC[C@H](N2CCN(CCO)CC2)C1` (single isomer, unassigned) [88*], the Ki in experiment [2] is 88.2 nM. In experiment [1], the EC50 was determined as 627 nM.

For the compound `CC(C)n1nc(-c2cncc(Cl)c2)nc1[C@H]1CC[C@@H](N2CCOC[C@@H]2C)C1` [Compound 126, (S)-4-((1R,3S)-3-(3-(5-Chloropyridin-3-yl)-1-isopropyl-1H-1,2,4-triazol-5-yl)cyclopentyl)-3-methylmorpholine], the Ki in experiment [2] was 30.8 nM. Moreover, the EC50 in experiment [1] stood at 6.79 nM. In the same order, the values of `CC(C)n1nc(-c2cnc(C(F)(F)F)nc2)nc1[C@@H]1CC[C@H](N2CCO[C@@H](C)C2)C1` [Compound 150, (S)-4-((1S,3R)-3-(1-Isopropyl-3-(2-(trifluoromethyl)pyrimidin-5-yl)-1H-1,2,4-triazol-5-yl)cyclopentyl)-2-methylmorpholine] are 3540 nM and 946 nM. As for `COCCN1CCN([C@@H]2CC[C@@H](c3nc(-c4ccc(C(F)(F)F)nc4)nn3C(C)C)C2)CC1` [Compound 82, 1-((1R,3R)-3-(1-Isopropyl-3-(6-(trifluoromethyl)pyridin-3-yl)-1H-1,2,4-triazol-5-yl)cyclopentyl)-4-(2-methoxyethyl)piperazine], in experiment [2], the Ki is 87 nM. Besides, the 50% effective concentration (EC50) in experiment [1] was determined as 280 nM.

`CC[C@@H]1CN([C@@H]2CC[C@H](c3nc(-c4cnc(C(F)(F)F)c(F)c4)nn3C(C)C)C2)CCO1` [Compound 146, (R)-2-Ethyl-4-((1R,3S)-3-(3-(5-fluoro-6-(trifluoromethyl)pyridin-3-yl)-1-isopropyl-1H-1,2,4-triazol-5-yl)cyclopentyl)morpholine]: in experiment [2], the Ki is 11.3 nM. Further, in experiment [1], the half-maximal effective concentration (EC50) was determined as 0.94 nM. For `CC(C)n1nc(-c2cnc(F)c(C(F)(F)F)c2)nc1[C@H]1CC[C@@H](N2CCOCC2)C1` (single isomer, unassigned) [Compound 158*], the inhibition constant Ki in experiment [2] is 33.8 nM. The EC50 in experiment [1] is 5.38 nM. Regarding `CC(C)n1nc(-c2cccc(C(F)(F)F)n2)nc1[C@H]1CC[C@@H](N2CCOC[C@@H]2C)CC1` (single isomer, unassigned) [79*], the EC50 in experiment [1] was 23.1 nM. As to `CC(C)n1nc(-c2cccc(C(F)(F)F)n2)nc1[C@H]1CC[C@H](N2CCOC[C@@H]2C)CC1` (single isomer, unassigned) [78*], in experiment [1], the EC50 was above 333 nM.

For `CC(C)n1nc(-c2cncc(C(F)(F)F)c2)nc1[C@H]1[C@@H]2C[C@H](N3CCOC[C@@H]3C)C[C@@H]21` [Compound 122, (S)-4-((1R,3r,5S,6R)-6-(1-Isopropyl-3-(5-(trifluoromethyl)pyridin-3-yl)-1H-1,2,4-triazol-5-yl)bicyclo[3.1.0]hexan-3-yl)-3-methylmorpholine], the Ki in experiment [2] is 26.6 nM. Moreover, in experiment [1], the EC50 was determined as 7.81 nM. In the case of `CC[C@@H]1CN([C@@H]2CC[C@H](c3nc(-c4ccc(C(F)F)nc4)nn3C(C)C)C2)CCO1` [Compound 156, (R)-4-((1R,3S)-3-(3-(6-(Difluoromethyl)pyridin-3-yl)-1-isopropyl-1H-1,2,4-triazol-5-yl)cyclopentyl)-2-ethylmorpholine], the Ki in experiment [2] was 43.8 nM. Moreover, the EC50 in experiment [1] was found to be 4.07 nM. Consider `CC(C)n1nc(-c2cncc(C(F)(F)F)c2)cc1[C@H]1[C@@H]2CC(N3CCOC[C@H]3C)C[C@@H]21` (single isomer, unassigned) [44*], for which the inhibition constant (Ki) in experiment [2] is 65 nM. Besides, in experiment [1], the EC50 worked out at 62 nM. Regarding `CC(C)n1nc(-c2cncc(C(F)(F)F)c2)nc1[C@H]1[C@@H]2C[C@@H](N3CCOC[C@@H]3C)C[C@@H]21` [Compound 121, (S)-4-((1R,3s,5S,6R)-6-(1-Isopropyl-3-(5-(trifluoromethyl)pyridin-3-yl)-1H-1,2,4-triazol-5-yl)bicyclo[3.1.0]hexan-3-yl)-3-methylmorpholine], in experiment [2], the Ki is 564 nM. In experiment [1], the EC50 worked out at 193 nM. As for `CC(C)n1nc(-c2cncc(C(F)(F)F)c2)nc1[C@@H]1CC[C@H](N2CCOCC2)C1` (single isomer, unassigned) [Compound 117*], the inhibitory constant (Ki) in experiment [2] was 34.6 nM. For the same compound, the EC50 in experiment [1] was 13.5 nM. For `CC(C)n1nc(-c2cnc(F)c(C(F)(F)F)c2)nc1[C@@H]1CC[C@H](N2CCOCC2)C1` (single isomer, unassigned) [Compound 157*] the same measures were 51 nM and 59.2 nM. Regarding `CC(C)n1nc(-c2ccnc(C(F)(F)F)n2)cc1[C@H]1[C@@H]2C[C@@H](N3CCOC[C@H]3C)C[C@@H]21` [Compound 102, (R)-4-((1R,3s,5S,6S)-6-(1-Isopropyl-3-(2-(trifluoromethyl)pyrimidin-4-yl)-1H-pyrazol-5-yl)bicyclo[3.1.0]hexan-3-yl)-3-methylmorpholine], in experiment [2], the inhibition constant Ki is 73 nM. The EC50 in experiment [1] stood at 55 nM. As to `CC(C)n1nc(-c2cccc(C(F)(F)F)n2)nc1[C@H]1CC[C@@H](N2CCOC[C@H]2C)CC1` (single isomer, unassigned) [81*], the EC50 in experiment [1] stood at 27.3 nM.
